Assay results from ChEMBL document CHEMBL3297656, “New coumarin derivatives: design, synthesis and use as inhibitors of hMAO” (Bioorg Med Chem, 2014).
pIC50: −log10 of the molar value.

What was measured:
[1] = target: T1, Amine oxidase [flavin-containing] A (Homo sapiens, UniProt P21397); assay: Inhibition of human recombinant MAO-A assessed as H2O2 production using p-tyramine substrate at 60 uM by fluorimetric method
T1 sequence (P21397 whole entry): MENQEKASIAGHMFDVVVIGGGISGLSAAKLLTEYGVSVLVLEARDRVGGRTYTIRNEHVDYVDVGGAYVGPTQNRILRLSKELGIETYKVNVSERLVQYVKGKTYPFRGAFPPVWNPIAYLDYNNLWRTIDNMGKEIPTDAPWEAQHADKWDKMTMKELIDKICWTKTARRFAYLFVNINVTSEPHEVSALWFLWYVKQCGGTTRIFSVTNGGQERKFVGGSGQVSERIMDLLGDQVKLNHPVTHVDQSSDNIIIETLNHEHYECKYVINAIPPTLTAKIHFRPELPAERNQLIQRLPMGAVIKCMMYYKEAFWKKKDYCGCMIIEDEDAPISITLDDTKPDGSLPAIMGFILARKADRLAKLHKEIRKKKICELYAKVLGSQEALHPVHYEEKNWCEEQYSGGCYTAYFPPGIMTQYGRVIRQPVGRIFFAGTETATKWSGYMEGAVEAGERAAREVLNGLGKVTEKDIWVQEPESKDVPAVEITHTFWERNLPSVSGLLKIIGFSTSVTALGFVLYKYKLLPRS

[2] = target: T2, Amine oxidase [flavin-containing] B (Homo sapiens, UniProt P27338); assay: Inhibition of human recombinant MAO-B assessed as H2O2 production using p-tyramine substrate by fluorimetric method
T2 sequence (P27338 whole entry): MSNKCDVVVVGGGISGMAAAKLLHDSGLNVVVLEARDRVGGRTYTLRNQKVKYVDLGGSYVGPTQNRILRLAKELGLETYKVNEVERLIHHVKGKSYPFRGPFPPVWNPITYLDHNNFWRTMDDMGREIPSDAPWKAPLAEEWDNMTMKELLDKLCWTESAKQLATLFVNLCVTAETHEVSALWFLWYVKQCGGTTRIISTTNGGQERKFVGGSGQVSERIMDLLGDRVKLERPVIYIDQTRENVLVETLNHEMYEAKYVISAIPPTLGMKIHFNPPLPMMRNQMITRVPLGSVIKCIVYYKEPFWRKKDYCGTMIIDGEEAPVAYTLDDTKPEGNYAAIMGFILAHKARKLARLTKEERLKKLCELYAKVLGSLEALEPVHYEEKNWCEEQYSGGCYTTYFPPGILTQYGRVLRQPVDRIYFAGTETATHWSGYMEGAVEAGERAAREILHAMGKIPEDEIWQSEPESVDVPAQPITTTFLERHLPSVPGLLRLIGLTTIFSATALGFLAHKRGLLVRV

Homo sapiens = species on record: Homo sapiens; assay: Selectivity index, ratio of IC50 for human recombinant MAO-A to IC50 for human recombinant MAO-B
[3] = target: T2, Amine oxidase [flavin-containing] B; assay: Inhibition of human recombinant MAO-B assessed as H2O2 production using p-tyramine substrate at 60 uM by fluorimetric method
[4] = target: T1, Amine oxidase [flavin-containing] A; assay: Inhibition of human recombinant MAO-A assessed as H2O2 production using p-tyramine substrate by fluorimetric method

inhibition (INH) [1] | pIC50 [2] | Ratio IC50 (Homo sapiens) | inhibition (INH) [3] | pIC50 [4] | Structure (SMILES)
Not Active | 4.82 | 3.9 |  |  | O=C(Sc1ccc(Br)cc1)c1cc2cc(C(F)(F)F)ccc2oc1=O
Not Active | 5.11 | 7.8 |  |  | O=C(Sc1ncccn1)c1cc2ccccc2oc1=O
Not Active | 4.68 | 2.6 |  |  | O=C(Sc1ccc(Br)cc1)c1cc2cc([N+](=O)[O-])ccc2oc1=O
 | 5.19 | 3.5 |  | 4.64 | O=C(Sc1ccc(Br)cc1)c1cc2ccccc2oc1=O
 | 6.68 | 189 |  | 4.40 | O=C(SCc1ccco1)c1cc2ccccc2oc1=O
Not Active | 4.80 | 3.8 |  |  | CCCCSC(=O)c1cc2ccccc2oc1=O
 |  |  |  | 4.45 | CC(C)NC(=O)c1cc2ccccc2oc1=O
Not Active | 4.60 | 2.4 |  |  | O=C(Sc1ccc(Br)cc1)c1cc2cc(Br)c(Br)cc2oc1=O

Continued, compound first:

Structure (SMILES) | inhibition (INH) [1] | pIC50 [2] | Ratio IC50 (Homo sapiens) | inhibition (INH) [3] | pIC50 [4]
CCCCSC(=O)c1cc2cc([N+](=O)[O-])ccc2oc1=O | Not Active |  |  | Not Active | 
CC(C)(C)NC(=O)c1cc2cc([N+](=O)[O-])ccc2oc1=O | Not Active |  |  | Not Active | 
O=C(SCc1ccco1)c1cc2cc([N+](=O)[O-])ccc2oc1=O |  | 4.88 | 2.9 |  | 4.32
CCCCCCN(CCCCCC)C(=O)c1cc2cc(Br)cc(Br)c2oc1=O |  | 5.13 | 1.4 |  | 5.00
O=C(SCc1ccco1)c1cc2cc(Br)c(Br)cc2oc1=O | Not Active | 5.25 | 10.6 |  | 
CCC(C)NC(=O)c1cc2cc([N+](=O)[O-])ccc2oc1=O (stereo not drawn) | Not Active | 4.76 | 3.4 |  | 
CCC(C)NC(=O)c1cc2cc(Br)cc(Br)c2oc1=O (stereo not drawn) |  | 4.34 | 0.9 |  | 4.37
CC(C)(C)NC(=O)c1cc2ccccc2oc1=O |  | 5.10 | 5.1 |  | 4.39
CCCCSC(=O)c1cc2cc(Br)c(Br)cc2oc1=O | Not Active |  |  | Not Active | 
CCCCCCN(CCCCCC)C(=O)c1cc2cc([N+](=O)[O-])ccc2oc1=O | Not Active |  |  | Not Active | 
CC(C)NC(=O)c1cc2cc(Br)cc(Br)c2oc1=O |  | 4.99 | 2.2 |  | 4.64
CC(C)NC(=O)c1cc2cc([N+](=O)[O-])ccc2oc1=O | Not Active |  |  | Not Active | 
